Values after ≈ are worked out from the molar mass of the structure shown. Bounds are passed on as bounds.

The target of assay [1] is T1, Escherichia coli LpxC enzyme (Escherichia coli, UniProt P0A725).
T1 construct: made in house; host or cells: Escherichia coli
T1 sequence (P0A725 1-305): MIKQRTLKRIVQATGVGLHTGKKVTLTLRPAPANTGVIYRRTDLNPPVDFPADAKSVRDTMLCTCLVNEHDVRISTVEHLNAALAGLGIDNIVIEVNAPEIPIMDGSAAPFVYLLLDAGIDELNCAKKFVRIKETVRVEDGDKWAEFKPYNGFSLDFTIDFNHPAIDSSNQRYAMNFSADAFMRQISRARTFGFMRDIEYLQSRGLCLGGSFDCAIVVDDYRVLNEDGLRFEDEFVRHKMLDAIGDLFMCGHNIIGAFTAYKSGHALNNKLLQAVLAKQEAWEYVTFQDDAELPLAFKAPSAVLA
In words: Inhibitory activity on Escherichia coli LpxC enzyme (LCMS method). The conditions noted are these: LC-MS/MS detection; 3.1 nmol/L enzyme, 20 μmol/L substrate, pH 6.5, 120 min; read-out: IC50 (inhibitory activity on Escherichia coli LpxC enzyme, LCMS method). Format: biochemical. An excerpt:
Test Example 3 Evaluation of the Inhibitory Activity on Escherichia coli LpxC Enzyme (LCMS Method)
To assay the activity of Escherichia coli LpxC enzyme, LpxC was reacted with its substrate, UDP-3-O-(R-3-hydroxymyristoyl)-N-acetylglucosamine, and the amount of the reaction product was quantified by liquid chromatography tandem mass spectrometry.
Specifically, to 3.1 nmol/L Escherichia coli LpxC enzyme (as acquired by preparing chromosomal DNA from Escherichia coli, obtaining the Escherichia coli LpxC genes by PCR (polymerase chain reaction) using LpxC specific primer, and incorporating the genes into a vector, followed by expression using Escherichia coli), 20 μmol/L UDP-3-O-(R-3-hydroxymyristoyl)-N-acetylglucosamine (Alberta) was added, and the mixture was incubated at room temperature for 120 minutes. This reaction was performed in a 40 mmol/L-2-morpholinoethanesulfonic acid buffer solution (pH 6.5) containing 0.02% Brij 35, 25 nmol/L-zinc chloride, and 80 μmol/L-dithiothreitol. The reaction was terminated by the addition of acetonitrile containing 25 μmol/L-UDP-N-acetylglucosamine as an internal standard to the reaction mixture. Centrifugation was performed and the amount of the substrate and the reaction product in the supernatant was detected by liquid chromatography tandem mass spectrometry. An inhibition curve was obtained by performing the aforementioned reaction in the presence of various concentrations of test compounds. From this inhibition curve, the concentration of test compound at which the amount of the reaction product was suppressed by 50% (IC50 value) was determined, which was used as an index for the inhibitory activity on Escherichia coli LpxC enzyme.

Assay [2] concerns Escherichia coli strain ATCC25922. In words: Antimicrobial activity, MIC by broth microdilution. In kind it is cell-based. The conditions noted are these: ATCC25922, 18 h, cation-adjusted Mueller-Hinton broth, about 5×10^5 CFU/mL, 35° C., about 18 hours, read-out: MIC Escherichia coli ATCC25922. The method, boiled down:
(§1)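 CLSI-based broth microdilution in cation-adjusted Mueller-Hinton broth, inoculum about 5×10^5 CFU/mL from overnight heart infusion agar culture. Incubation 35° C. about 18 h; MIC is the lowest concentration with no visible growth.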
Background: Dilution methods test growth across graded concentrations, often in twofold steps.

Assay [3] has as its system Klebsiella pneumoniae strain ATCC13883. In words: Antimicrobial activity, MIC by broth microdilution. Format: cell-based. To be noted: ATCC13883, cation-adjusted Mueller-Hinton broth, about 5×10^5 CFU/mL, 35° C., about 18 hours, read-out: MIC Klebsiella pneumoniae ATCC13883. The method, boiled down: as §1
For assay [4], the system named is Pseudomonas aeruginosa strain ATCC27853. Briefly: Antimicrobial activity, MIC by broth microdilution. Format: cell-based. To be noted: ATCC27853, 18 h, cation-adjusted Mueller-Hinton broth, about 5×10^5 CFU/mL, 35° C., about 18 hours, read-out: MIC Pseudomonas aeruginosa ATCC27853. The gist of the method: as §1
For assay [5], the target named is T2, Pseudomonas aeruginosa LpxC enzyme (Pseudomonas aeruginosa, UniProt P47205).
T2 construct: made in house; host or cells: Escherichia coli
T2 sequence (P47205 1-303): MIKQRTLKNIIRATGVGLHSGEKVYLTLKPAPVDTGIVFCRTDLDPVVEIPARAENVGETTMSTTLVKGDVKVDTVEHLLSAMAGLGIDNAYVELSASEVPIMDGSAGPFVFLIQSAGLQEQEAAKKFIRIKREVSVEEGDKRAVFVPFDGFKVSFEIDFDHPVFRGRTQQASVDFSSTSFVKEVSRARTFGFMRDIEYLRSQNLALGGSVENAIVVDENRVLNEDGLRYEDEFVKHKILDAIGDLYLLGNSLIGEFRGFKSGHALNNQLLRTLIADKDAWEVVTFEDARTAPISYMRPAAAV
In words: Inhibitory activity on Pseudomonas aeruginosa LpxC enzyme (fluorescamine method). To be noted: fluorescamine detection; 3.6 nmol/L enzyme, 20 μmol/L substrate, pH 8.0, 60 min. In kind it is biochemical. From the text:
Test Example 1 Evaluation of the Inhibitory Activity on Pseudomonas aeruginosa LpxC Enzyme (Fluoresamine Method)
To assay the activity of Pseudomonas aeruginosa LpxC enzyme, LpxC was reacted with its substrate, UDP-3-O-(R-3-hydroxydecanoyl)-N-acetylglucosamine, and the amount of the reaction product was quantified by the amino groups present in the product.
Specifically, to 3.6 nmol/L Pseudomonas aeruginosa LpxC enzyme (as acquired by preparing chromosomal DNA from Pseudomonas aeruginosa, obtaining the Pseudomonas aeruginosa LpxC genes by PCR (polymerase chain reaction) using LpxC specific primer, and incorporating the genes into a vector, followed by expression using Escherichia coli), 20 μmol/L UDP-3-O-(R-3-hydroxydecanoyl)-N-acetylglucosamine (Carbosynth) was added, and the mixture was incubated at room temperature for 60 minutes. This reaction was performed in a 40 mmol/L-HEPES buffer solution (pH 8.0) containing 0.02% Brij 35 and 25 nmol/L-zinc chloride. The reaction was terminated by the addition of 1.0 mg/mL-fluorescamine dissolved in a solvent obtained by mixing an equal amount of acetonitrile and dimethylformamide with the reaction mixture, and then, a 0.2 mol/L-sodium phosphate buffer solution (pH 8.0) was added thereto, and the amount of the reaction product was detected at an excitation wavelength/fluorescence wavelength=390 nm/495 nm. An inhibition curve was obtained by performing the aforementioned reaction in the presence of various concentrations of test compounds. From this inhibition curve, the concentration of test compound at which the amount of the reaction product was suppressed by 50% (IC50 value) was determined, which was used as an index for the inhibitory activity on Pseudomonas aeruginosa LpxC enzyme.

In assay [6] the target is T1, Escherichia coli LpxC enzyme. In words: Inhibitory activity on Escherichia coli LpxC enzyme (fluorescamine method). To be noted: fluorescamine detection; 3.1 nmol/L enzyme, 20 μmol/L substrate, pH 6.5, 120 min; read-out: IC50 (inhibitory activity on Escherichia coli LpxC enzyme, Fluoresamine method). Format: biochemical. The gist of the method: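 LpxC reacted with UDP-3-O-(R-3-hydroxymyristoyl)-N-acetylglucosamine; product amine quantified after fluorescamine stop and pH 8.0 phosphate buffer addition, at 390 nm/495 nm. Inhibition curve built from a range of test compound concentrations.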

Usually IC50 stands for the concentration needed to halve the response being measured. In general, MIC refers to the smallest concentration in the dilution series that meets the test's criterion for growth inhibition. Take `C[C@H](O)c1nccn1[C@H](CN)c1cc(-c2ccc(C#C[C@H]3C[C@H](O)C3)cc2)on1` [Compound 70, trans-3-[(4-{3-[(1R)-2-Amino-1-{2-[(1S)-1-hydroxyethyl]-1H-imidazol-1-yl}ethyl]-1,2-oxazol-5-yl}phenyl)ethynyl]cyclobutan-1-ol]: the IC50 in assay [1] is under 37 nM. Moreover, the MIC in assay [2] came to 0.25 µg/mL (≈ 0.637 µM); in assay [3], 1 µg/mL (≈ 2.55 µM); in assay [4], 4 µg/mL (≈ 10.2 µM).
For the compound `C[C@H](O)c1nccn1Cc1cc(-c2ccc(C#C[C@@H]3[C@H]4CN(C[C@H](O)CO)C[C@@H]34)cc2)on1` [Compound 11, (2S)-3-[(1R,5S,6R)-6-({4-[3-({2-[(1S)-1-Hydroxyethyl]-1H-imidazol-1-yl}methyl)-1,2-oxazol-5-yl]phenyl}ethynyl)-3-azabicyclo[3.1.0]hexan-3-yl]propan-1,2-diol], the IC50 in assay [5] was 3.78 nM; in assay [6], 102 nM. Further, the MIC came out at 1 µg/mL (≈ 2.23 µM) in assay [2], 2 µg/mL (≈ 4.46 µM) in assay [3] and 8 µg/mL (≈ 17.8 µM) in assay [4].
With `C[C@H](O)c1nccn1Cc1cc(-c2ccc(C#CC3CC3CO)cc2)on1` (stereo in doubt) [Compound 7, (1S)-1-(1-{[5-(4-{[trans-2-(hydroxymethyl)cyclopropyl]ethynyl}phenyl)-1,2-oxazol-3-yl]methyl}-1H-imidazol-2-yl)ethan-1-ol], the results for the IC50 in assay [5] and in assay [6] were 4.44 nM and 15.4 nM, respectively. In addition, the minimum inhibitory concentration (MIC) in assay [2] was 0.25 µg/mL (≈ 0.688 µM); in assay [3], 0.5 µg/mL (≈ 1.38 µM); in assay [4], 16 µg/mL (≈ 44 µM).
As for `C[C@H](O)c1nccn1Cc1cc(-c2ccc(C#CC3CC3N)cc2)on1` (stereo in doubt) [Compound 9, (1S)-1-{1-[(5-(4-[(trans-2-aminocyclopropyl)ethynyl]phenyl}-1,2-oxazol-3-yl)methyl]-1H-imidazol-2-yl}ethan-1-ol], the IC50 amounted to 22.3 nM in assay [5] and 183 nM in assay [6]. Further, the MIC in assay [3] was found to be 4 µg/mL (≈ 11.5 µM); in assay [4], 16 µg/mL (≈ 45.9 µM).
Take `C[C@H](O)c1nccn1Cc1cc(-c2ccc(C#CC3CC(N)(C#N)C3)cc2)on1` (stereo partly drawn) [Compound 24, 1-Amino-3-({4-[3-({2-[(1S)-1-hydroxyethyl]-1H-imidazol-1-yl}methyl)-1,2-oxazol-5-yl]phenyl}ethynyl)cyclobutane-1-carbonitrile]: the IC50 in assay [1] was under 37 nM. Besides, the MIC in assay [2] is 2 µg/mL (≈ 5.16 µM); in assay [3], 4 µg/mL (≈ 10.3 µM); in assay [4], 128 µg/mL (≈ 330 µM).
For the compound `C[C@H](O)c1nccn1Cc1cc(-c2ccc(C#C[C@@H]3[C@H]4CN(CCO)C[C@@H]34)cc2)on1` [Compound 19, (1S)-1-(1-{[5-(4-{[(1R,5S,6s)-3-(2-Hydroxyethyl)-3-azabicyclo[3.1.0]hexan-6-yl]ethynyl}phenyl)-1,2-oxazol-3-yl]methyl}-1H-imidazol-2-yl)ethan-1-ol], the IC50 in assay [5] was found to be 2.03 nM; in assay [6] it was 123 nM. Also, the minimum inhibitory concentration (MIC) in assay [2] came out at 0.5 µg/mL (≈ 1.19 µM); in assay [3], 1 µg/mL (≈ 2.39 µM); in assay [4], 8 µg/mL (≈ 19.1 µM).
Consider `C[C@H](O)c1nccn1[C@H](CN)c1cc(-c2ccc(C#C[C@@H]3[C@H]4CN(CCO)C[C@@H]34)cc2)on1` [Compound 22, (1S)-1-(1-{(1R)-2-Amino-1-[5-(4-{[(1R,5S,6s)-3-(2-hydroxyethyl)-3-azabicyclo[3.1.0]hexan-6-yl]ethynyl}phenyl)-1,2-oxazol-3-yl]ethyl}-1H-imidazol-2-yl)ethan-1-ol], for which the IC50 in assay [1] stood at 655 nM. The MIC in assay [2] was 2 µg/mL (≈ 4.47 µM); in assay [3] it was 4 µg/mL (≈ 8.94 µM); in assay [4], 2 µg/mL (≈ 4.47 µM).
Turning to `C[C@H](O)c1nccn1[C@H](CN)c1cc(-c2ccc(C#CC3(N)CC3)cc2)on1` [Compound 21, (1S)-1-{1-[(1R)-2-amino-1-(5-(4-[(1-aminocyclopropyl)ethynyl]phenyl}-1,2-oxazol-3-yl)ethyl]-1H-imidazol-2-yl}ethan-1-ol], the IC50 in assay [1] is 282 nM. Also, the MIC in assay [2] amounted to 2 µg/mL (≈ 5.3 µM); in assay [3] it was 8 µg/mL (≈ 21.2 µM); in assay [4] it was 32 µg/mL (≈ 84.8 µM).
Take `C[C@H](O)c1nccn1Cc1cc(-c2ccc(C#CC3(N)CCOCC3)cc2)on1` [Compound 29, (1S)-1-{1-[(5-{4-[(4-aminooxan-4-yl)ethynyl]phenyl}-1,2-oxazol-3-yl)methyl]-1H-imidazol-2-yl}ethan-1-ol]: the IC50 in assay [1] was over 3000 nM. The MIC is 64 µg/mL (≈ 163 µM) in assay [2], 128 µg/mL (≈ 326 µM) in assay [3] and over 128 µg/mL in assay [4].
As to `C[C@H](O)c1nccn1Cc1cc(-c2ccc(C#CCCCO)c(F)c2)on1` [Compound 2, 5-{2-fluoro-4-[3-({2-[(1S)-1-hydroxyethyl]-1H-imidazol-1-yl}methyl)-1,2-oxazol-5-yl]phenyl} pent-4-yn-1-ol], the IC50 in assay [5] amounted to 6.92 nM; in assay [6], 16.9 nM. Also, the MIC in assay [2] was 1 µg/mL (≈ 2.71 µM); in assay [3] it was 2 µg/mL (≈ 5.41 µM); in assay [4], 64 µg/mL (≈ 173 µM).
For the compound `C[C@H](O)c1nccn1Cc1cc(-c2ccc(C#CCCCO)cc2)on1` [Compound 1, 5-{4-[3-({2-[(1S)-1-Hydroxyethyl]-1H-imidazol-1-yl}methyl)-1,2-oxazol-5-yl]phenyl}pent-4-yn-1-ol], the IC50 in assay [5] was determined as 13.2 nM; in assay [6], 51 nM. Further, the MIC in assay [2] stood at 1 µg/mL (≈ 2.85 µM); in assay [3], 2 µg/mL (≈ 5.69 µM); in assay [4], 64 µg/mL (≈ 182 µM).
The like results for `C[C@H](O)c1nccn1Cc1cc(-c2ccc(C#CCCCO)cc2F)on1` [Compound 3, 5-{3-fluoro-4-[3-({2-[(1S)-1-hydroxyethyl]-1H-imidazol-1-yl}methyl)-1,2-oxazol-5-yl]phenyl}pent-4-yn-1-ol] were, in that order, 4.36 nM, 16.1 nM, 0.5 µg/mL (≈ 1.35 µM), 1 µg/mL (≈ 2.71 µM) and 32 µg/mL (≈ 86.6 µM).
